Source: PMC8010047, “New insights into the molecular mechanism behind mannitol and erythritol fructosylation by β-fructofuranosidase from Schwanniomyces occidentalis” (Scientific Reports, 2021)

Key:
[1] = biological target: T1, β-fructofuranosidase from Schwanniomyces occidentalis (Ffase) (Schwanniomyces occidentalis, UniProt E5D0X5, D50A); test: X-ray crystallography (soaking); format: binding
T1 construct: expressed in Saccharomyces cerevisiae (SUC2-disrupted), secreted, DEAE-purified; homodimer of 160 kDa, 535 residues per subunit; GH32; deglycosylated for crystals
T1 sequence (E5D0X5 entry or part of it D50A): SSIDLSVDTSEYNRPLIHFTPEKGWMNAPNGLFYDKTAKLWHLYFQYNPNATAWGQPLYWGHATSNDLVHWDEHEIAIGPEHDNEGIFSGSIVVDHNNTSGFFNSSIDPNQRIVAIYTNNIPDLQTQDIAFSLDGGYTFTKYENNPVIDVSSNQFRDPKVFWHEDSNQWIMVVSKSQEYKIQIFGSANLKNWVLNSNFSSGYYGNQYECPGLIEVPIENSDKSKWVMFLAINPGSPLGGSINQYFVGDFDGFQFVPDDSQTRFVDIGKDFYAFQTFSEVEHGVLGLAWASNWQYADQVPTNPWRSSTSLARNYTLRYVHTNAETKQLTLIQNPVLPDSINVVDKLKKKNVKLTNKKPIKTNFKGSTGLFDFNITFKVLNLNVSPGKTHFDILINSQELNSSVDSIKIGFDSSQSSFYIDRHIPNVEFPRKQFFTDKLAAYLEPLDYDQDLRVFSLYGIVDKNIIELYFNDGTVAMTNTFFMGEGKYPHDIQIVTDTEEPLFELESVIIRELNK

[2] = biological target: T1, β-fructofuranosidase from Schwanniomyces occidentalis (Ffase); test: X-ray crystallography; format: binding; conditions: crystals incubated with fructosyl-mannitol, sucrose from traces in the product; deglycosylated inactive mutant; active site subsites -1/+1; paper deposits 6S2B and 6S1T without assigning them

OCC(O)C(O)CO[C@]1(CO)O[C@H](CO)[C@@H](O)[C@@H]1O (stereo partly drawn) [fructosyl-erythritol, 1/4-O-β-D-fructofuranosyl-D-erythritol]
X-ray crystallography (soaking) ([1]; 100 mM ligand soak, pH 6.0, deglycosylated inactive mutant, active site subsites -1/+1, 1.88 Å, paper deposits 6S2B and 6S1T without assigning them): The formation of Ffase-D50A/fructosyl-erythritol complex was clearly detected

OC[C@H]1O[C@@](CO)(O[C@H]2O[C@H](CO)[C@@H](O)[C@H](O)[C@H]2O)[C@@H](O)[C@@H]1O [sucrose]
X-ray crystallography [2]: only sucrose was observed in crystals grown in the presence of fructosyl-mannitol

OC[C@@]1(O)OC[C@@H](O)[C@@H](O)[C@@H]1O [β-fructose]
X-ray crystallography (soaking) ([1]; soaked with β-fructose plus mannitol or erythritol, active site, structure not deposited): only fructose was bound at the active site in both experiments
